Literature values as cited in patent US20260335331A1, “ORAL FORMULATION OF DIAMINOPHENOTHIAZINES AND METHODS OF MAKING AND USING THE SAME IN THE TREATMENT AND/OR PREVENTION OF DISEASES” (priority 2022, published 2026).

Test system: Macrorhabdus ornithogaster
Conditions: background statement

Which “success in treatment of avian megalobacteriosis” value does the source give for `C[C@@H]1[C@H](O)[C@@H](C)/C=C/C=C/C=C/C=C/C=C/C=C/C=C/[C@H](O[C@@H]2O[C@H](C)[C@@H](O)[C@H](N)[C@@H]2O)C[C@@H]2O[C@](O)(C[C@@H](O)C[C@@H](O)[C@H](O)CC[C@@H](O)C[C@@H](O)CC(=O)O[C@H]1C)C[C@H](O)[C@H]2C(=O)O` [amphotericin B] here?
The value was “Some success has been observed”.
